Assay results from patent US7173063B1, “Topoisomerase poisons for the treatment of proliferative disorders” (Fred Hutchinson Cancer Research Center, priority 2000, dated 2007).

Biological target: T1, Topo II (Saccharomyces cerevisiae, UniProt P06786)
T1 construct: Strains are wild-type (wt) or constitutively overexpressing Topo II (TOP2oe); endogenous in cells; host or cells: S. cerevisiae A364a background, chromosomal TOP2 with its promoter replaced by the GPD promoter (TOP2oe)
T1 sequence (P06786 1-1428): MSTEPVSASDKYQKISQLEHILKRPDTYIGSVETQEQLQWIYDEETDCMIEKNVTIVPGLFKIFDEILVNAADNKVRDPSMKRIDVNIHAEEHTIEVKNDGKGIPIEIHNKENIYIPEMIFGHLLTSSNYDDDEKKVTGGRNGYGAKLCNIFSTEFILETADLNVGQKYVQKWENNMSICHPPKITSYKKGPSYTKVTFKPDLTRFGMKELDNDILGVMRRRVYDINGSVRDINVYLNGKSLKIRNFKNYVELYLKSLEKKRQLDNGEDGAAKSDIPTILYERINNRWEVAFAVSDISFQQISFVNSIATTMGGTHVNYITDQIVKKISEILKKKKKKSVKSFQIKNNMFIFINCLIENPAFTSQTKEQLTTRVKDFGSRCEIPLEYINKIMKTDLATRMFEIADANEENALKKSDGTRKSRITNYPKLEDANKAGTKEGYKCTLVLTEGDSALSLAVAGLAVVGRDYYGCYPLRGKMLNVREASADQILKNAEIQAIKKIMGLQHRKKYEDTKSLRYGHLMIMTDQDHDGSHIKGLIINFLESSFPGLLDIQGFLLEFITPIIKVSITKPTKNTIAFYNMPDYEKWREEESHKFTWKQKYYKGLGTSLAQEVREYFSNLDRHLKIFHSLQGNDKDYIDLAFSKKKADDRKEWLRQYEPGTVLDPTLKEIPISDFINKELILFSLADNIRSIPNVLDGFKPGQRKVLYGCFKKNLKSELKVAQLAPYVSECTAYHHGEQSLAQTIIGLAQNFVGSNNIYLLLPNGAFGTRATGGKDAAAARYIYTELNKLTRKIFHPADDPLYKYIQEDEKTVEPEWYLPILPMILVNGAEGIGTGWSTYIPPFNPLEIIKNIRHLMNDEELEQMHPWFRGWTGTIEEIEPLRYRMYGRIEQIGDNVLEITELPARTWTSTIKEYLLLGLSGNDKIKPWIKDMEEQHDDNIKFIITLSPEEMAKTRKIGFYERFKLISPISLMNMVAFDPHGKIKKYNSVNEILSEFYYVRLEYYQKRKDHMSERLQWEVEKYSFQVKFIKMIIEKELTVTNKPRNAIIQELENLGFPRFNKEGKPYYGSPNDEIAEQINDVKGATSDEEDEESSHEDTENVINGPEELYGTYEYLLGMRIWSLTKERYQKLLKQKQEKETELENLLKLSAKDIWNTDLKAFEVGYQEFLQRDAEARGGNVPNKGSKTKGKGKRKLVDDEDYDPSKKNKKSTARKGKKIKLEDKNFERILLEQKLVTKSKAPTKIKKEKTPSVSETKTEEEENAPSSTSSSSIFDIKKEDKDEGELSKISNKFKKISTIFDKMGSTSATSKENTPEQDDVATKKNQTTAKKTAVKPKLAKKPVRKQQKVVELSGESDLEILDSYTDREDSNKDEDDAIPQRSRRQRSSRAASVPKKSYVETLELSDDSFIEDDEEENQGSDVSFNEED
Test: Yeast toxicity in strain overexpressing Topo II (TOP2oe)
Format: cell-based
Settings: TOP2oe vs wild-type strain
From the text: The strains are derived from the A364a genetic background, with the exception of BY4705, which is derived from the S288C background. Gene disruptions were generated by PCR fragment directed replacement (Baudin, et al., Nucleic Acids Research 21: 3329–30 (1993), Guldener, et al., Nucleic Acids Research 24: 2519–24 (1996)). Yeast overexpressing topoisomerase II was constructed by a PCR fragment directed promoter replacement of the topoisomerase II promoter with the yeast GPD promoter flanked upstream by the URA3 marker. All strains (except BY4705) bear the pleitropic drug sensitizing mutations erg6, pdr1, and pdr3 (Balzi, et al., Journal of Bioenergetics & Biomembranes 27: 71–6 (1995), Delaveau, et al, Molecular & General Genetics 244: 501–11 (1994), Gaber, et al., Molecular & Cellular Biology 9: 3447–56 (1989), Saunders, et al., Canadian Journal of Genetics & Cytology, 24: 493–503 (1982). Subik, et al, Current Genetics 10: 665–70 (1986)). The haploid yeast strain BY4705 (Brachmann, et al., Yeast 14: 115–32 (1998)) was used in the experiments described in FIG. 5. Plasmids expressing yeast or human topoisomerase I genes under the GAL promoter (Knab, et al., Journal of Biological Chemistry 268: 22322–30 (1993). Knab, et al., Journal of Biological Chemistry 270: 6141–8 (1995)) were transformed into BY4705 using standard procedures.
Yeast toxicity assays were performed essentially as follows: Exponentially growing cultures of the appropriate strains were diluted in synthetic complete media to a concentration of 7.4×10^4 cells/mL, and aliquots (135 μL) were transferred to each well of clear flat-bottomed 96 well plates. Compounds were added in duplicate or triplicate as 15 μL of the appropriate dilution in 5% DMSO. A 15 μL portion of 5% DMSO was added to control wells. Assay plates were incubated at 30° C. for approximately seven generations growth in solvent control wells (as monitored by OD660, typically 21–24 hours), then the OD660 of the cultures was measured in a microplate reader (Bio-Tek). […]

SMILES	effect of overexpression of Topo II on toxicity
O=c1c(Cl)c(Cl)cnn1CCCl [compound IIa]	Neither compound shows a large increase in toxicity
O=C(CCl)Nc1ccc(C(=O)N/N=C/c2ccc(Cl)cc2)cc1 [compound Ia]	Neither compound shows a large increase in toxicity
CC(=O)[C@]1(O)Cc2c(O)c3c(c(O)c2[C@@H](O[C@H]2C[C@H](N)[C@H](O)[C@H](C)O2)C1)C(=O)c1ccccc1C3=O [idarubicin, reference compound]	large increase
